# Assay results from patent publication US10202360B2 (CELGENE QUANTICEL RESEARCH, INC., priority 2016, dated 2019).
# Target: CREBBP (Homo sapiens (Human), UniProt Q92793)
# Experiment: In vitro enzyme inhibition assay - CREBBP inhibition (AlphaScreen, biotinylated H4-tetraacetyl peptide)
# Assay type: binding
# Conditions: Table 28; AlphaScreen, H4-tetraacetyl peptide
# In short: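 Displacement of 20 nM biotinylated tetraacetyl-H4 peptide from 50 nM E. coli-expressed His-CREBBP, measured by AlphaScreen after bead equilibration for 2 h.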
# Chain of CREBBP (Q92793 1081-1197): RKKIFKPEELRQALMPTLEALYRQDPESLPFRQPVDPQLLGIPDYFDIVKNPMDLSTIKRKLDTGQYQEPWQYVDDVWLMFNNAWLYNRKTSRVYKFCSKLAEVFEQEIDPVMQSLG
row,Structure (SMILES),IC50
1,"CC[C@H](C)S(=O)(=O)Nc1cc(-c2ccc(=O)n(C)c2)nc(Oc2c(F)ccc(C)c2Cl)n1 [Example 224, (2S)-Butane-2-sulfonic acid [2-(2-chloro-6-fluoro-3-methyl-phenoxy)-6-(1-methyl-6-oxo-1,6-dihydro-pyridin-3-yl)-pyrimidin-4 yl]-amide]",< 0.5 µM
2,"CC[C@H](C)S(=O)(=O)Nc1cc(-c2ccc(=O)n(C)c2)nc(Oc2c(F)ccc(C)c2F)n1 [Example 225, (S)-N-(2-(2,6-difluoro-3-methylphenoxy)-6-(1-methyl-6-oxo-1,6-dihydropyridin-3-yl)pyrimidin-4-yl)butane-2-sulfonamide]",< 0.5 µM
3,"CC[C@H](C)S(=O)(=O)Nc1cc(-c2ccc(=O)n(C)c2)nc(Oc2c(Cl)ccc(C)c2F)n1 [Example 226, (S)-Butane-2-sulfonic acid [2-(6-chloro-2-fluoro-3-methyl-phenoxy)-6-(1-methyl-6-oxo-1,6-dihydro-pyridin-3-yl)-pyrimidin-4-yl]-amide]",< 0.5 µM
4,"CCC[C@H](C)S(=O)(=O)Nc1cc(-c2ccc(=O)n(C)c2)nc(Oc2c(Cl)ccc(C)c2F)n1 [Example 227, (2S)-Pentane-2-sulfonic acid [2-(6-chloro-2-fluoro-3-methyl-phenoxy)-6-(1-methyl-6-oxo-1,6-dihydro-pyridin-3-yl)-pyrimidin-4-yl]-amide]",< 0.5 µM
5,"CCC[C@H](C)S(=O)(=O)Nc1cc(-c2ccc(=O)n(C)c2)nc(Oc2c(F)ccc(C)c2Cl)n1 [Example 228, (2S)-Pentane-2-sulfonic acid [2-(2-chloro-6-fluoro-3-methyl-phenoxy)-6-(1-methyl-6-oxo-1,6-dihydro-pyridin-3-yl)-pyrimidin-4-yl]-amide]",< 0.5 µM
6,"CC[C@H](C)S(=O)(=O)Nc1cc(-c2ccc(=O)n(C)c2)nc(Oc2c(F)cccc2F)n1 [Example 229, (S)-N-(2-(2,6-difluorophenoxy)-6-(1-methyl-6-oxo-1,6-dihydropyridin-3-yl)pyrimidin-4-yl)butane-2-sulfonamide]",< 0.5 µM
7,"CC[C@@H](C)S(=O)(=O)Nc1cc(-c2ccc(=O)n(C)c2)nc(Oc2c(F)cccc2F)n1 [Example 230, (R)-N-(2-(2,6-difluorophenoxy)-6-(1-methyl-6-oxo-1,6-dihydropyridin-3-yl)pyrimidin-4-yl)butane-2-sulfonamide]",< 0.5 µM
8,"Cn1cc(-c2cc(NS(=O)(=O)CCC(F)(F)F)nc(Oc3c(F)cccc3Cl)n2)ccc1=O [Example 231, 3,3,3-Trifluoro-propane-1-sulfonic acid [2-(2-chloro-6-fluoro-phenoxy)-6-(1-methyl-6-oxo-1,6-dihydro-pyridin-3-yl)-pyrimidin-4-yl]-amide]",< 0.5 µM
9,"Cn1cc(-c2cc(NS(=O)(=O)CCCC(F)(F)F)nc(Oc3c(F)cccc3Cl)n2)ccc1=O [Example 232, 4,4,4-Trifluoro-butane-1-sulfonic acid [2-(2-chloro-6-fluoro-phenoxy)-6-(1-methyl-6-oxo-1,6-dihydro-pyridin-3-yl)-pyrimidin-4-yl]-amide]",< 0.5 µM
10,"CCCCS(=O)(=O)Nc1cc(-c2ccc(=O)n(C)c2)nc(Oc2c(F)cccc2OC)n1 [Example 233, Butane-1-sulfonic acid [2-(2-fluoro-6-methoxy-phenoxy)-6-(1-methyl-6-oxo-1,6-dihydro-pyridin-3-yl)-pyrimidin-4-yl]-amide]",< 0.5 µM
11,"COc1cccc(F)c1Oc1nc(NS(=O)(=O)C(C)C)cc(-c2ccc(=O)n(C)c2)n1 [Example 234, Propane-2-sulfonic acid [2-(2-fluoro-6-methoxy-phenoxy)-6-(1-methyl-6-oxo-1,6-dihydro-pyridin-3-yl)-pyrimidin-4-yl]-amide]",< 0.5 µM
12,"CCCS(=O)(=O)Nc1cc(-c2ccc(=O)n(C)c2)nc(Oc2c(F)cccc2OC)n1 [Example 235, Propane-1-sulfonic acid [2-(2-fluoro-6-methoxy-phenoxy)-6-(1-methyl-6-oxo-1,6-dihydro-pyridin-3-yl)-pyrimidin-4-yl]-amide]",< 0.5 µM
